Molecules are shown by their SMILES.

Drawing on ChEMBL document CHEMBL3507680, “University of Dundee, Gates Library screen for HepG2 cell viability”, this text covers cytotoxicity for 41 compounds.

The nature of this data set: Human HepG2 cell viability assay in 384 well format. The settings on record: HepG2 cells, read-out: Inhibition. The data set is classed as toxicity, cell-based. The arrangement: dose 125 nL, time 70.5 hour; concentration not given beside the values.

On to `Cc1nn(C)cc1S(=O)(=O)NC1(CN2CCOCC2)CCCCC1`, for which the cytotoxicity at 70.5 h is -3.14%.
Regarding `Cc1cc(-c2cnc(C(C)C)nc2CN(C)C(=O)c2ccccn2)on1`, the cytotoxicity at 70.5 h is -6.43%.
As for `CCOCC(=O)N1CCC(c2cc3ncccc3c(O)n2)CC1`, the cytotoxicity at 70.5 h is -6.58%.
`CC(C)(C)c1nnc(NCC(=O)N2CCc3sccc3C2)s1`: the cytotoxicity at 70.5 h is -10.5%.
`COc1ccc(CCNC(=O)NCc2cccc(C(N)=O)c2)cc1OC`: the cytotoxicity at 70.5 h is -15%.
The figure for `CC(C)(NC(=O)c1scnc1Cl)c1ccccc1` is -12.8%.
The figure for `CCCc1c(C(=O)N2CCN(Cc3ccccn3)CC2)cnn1C` is -14.7%.
Regarding `CCCc1c(C(=O)N2CCN(c3cnccn3)CC2)cnn1C`, the cytotoxicity at 70.5 h is -14.4%.
On to `CCN1CCN(C(=O)c2cc(F)cc3nc(C)c(C)nc23)CC1`, for which the cytotoxicity at 70.5 h was -12.2%.
For `Cn1ccc(CS(=O)(=O)Cc2cccc(F)c2)cc1=O`, the cytotoxicity at 70.5 h is -11%.
On to `Cc1ccc(C)c(CS(=O)(=O)Cc2ccn(C)c(=O)c2)c1`, for which the cytotoxicity at 70.5 h is -7.9%.
As to `N#Cc1cc(F)ccc1Cn1cncn1`, the cytotoxicity at 70.5 h is -9.13%.
`COc1ccc(CNCCc2cccc(C(N)=O)c2)cc1C`: the cytotoxicity at 70.5 h is 11.7%.
In the case of `Cc1cn2c(n1)CCC(NC(=O)c1ccc(OCC3CC3)nc1)C2` (stereo unspecified), the cytotoxicity at 70.5 h is -3.71%.
With `CC(C)c1nsc(N2CCn3c(nnc3-c3ccccc3)C2)n1`, the cytotoxicity at 70.5 h is -7.62%.
Take `O=C(Cc1cccc(F)c1F)NS(=O)(=O)c1ccc(Cl)cn1`: the cytotoxicity at 70.5 h is -6.06%.
`O=C(CNc1nc(C(F)(F)F)cs1)N1CCc2sccc2C1`: the cytotoxicity at 70.5 h was -8.73%.
With `FC(F)(F)CCN(Cc1ccon1)C1CCCC1`, the cytotoxicity at 70.5 h is -7.02%.
Consider `COc1cccc(CNCCc2cccc(C(N)=O)c2)c1`, for which the cytotoxicity at 70.5 h is -8.65%.
`CNc1nc(CS(=O)(=O)c2ccccc2)cs1`: the cytotoxicity at 70.5 h is -7.87%.
In the case of `CCOCCN1CCN(CCc2ccc3c(c2)CCO3)CC1`, the cytotoxicity at 70.5 h was 12.7%.
Consider `NC(=O)CNC(c1ccccc1)c1ccccc1`, for which the cytotoxicity at 70.5 h amounted to 17.2%.
Turning to `N#CC1(C(=O)N2CCOC(c3ccc(F)cc3)C2)CCCCC1` (stereo unspecified), the cytotoxicity at 70.5 h was -9.88%.
For the compound `CN(C)S(=O)(=O)NC1CC(=O)N(c2ccccc2Cl)C1` (stereo unspecified), the cytotoxicity at 70.5 h is -17.3%.
With `COCC(=O)Nc1nnc2n(Cc3cccc(OC)c3)[nH]c(C)c1-2`, the cytotoxicity at 70.5 h was -5.86%.
As for `CC(C)c1nnc2n1CCN(C(C(N)=O)c1ccc(F)cc1)C2` (stereo unspecified), the cytotoxicity at 70.5 h is -21.3%.
On to `CC(C)(C)CNC(=O)c1ccc(C(=O)O)cc1`, for which the cytotoxicity at 70.5 h was -5.94%.
With `O=C(NS(=O)(=O)c1cccnc1)C1CC(c2ccccc2)=NO1` (stereo unspecified), the cytotoxicity at 70.5 h was -4.92%.
As to `CCOC(C)C(=O)Nc1ccnn1-c1ccccc1C` (stereo unspecified), the cytotoxicity at 70.5 h was 7.99%.
For `O=C(Nc1cnn(CC(F)F)c1)c1cccc(-n2cnnn2)c1`, the cytotoxicity at 70.5 h is -1.49%.
As for `OCC(CO)Nc1nc(C(F)F)nc2ccccc12`, the cytotoxicity at 70.5 h is -3.24%.
As to `Cc1[nH]nc2ncc(C(=O)N3CCCC3c3noc(C(C)C)n3)cc12` (stereo unspecified), the cytotoxicity at 70.5 h is -19.5%.
As to `O=C(O)c1ccc(S(=O)(=O)Nc2cnn(CC(F)(F)F)c2)cc1`, the cytotoxicity at 70.5 h turned out to be 3.28%.
For `Cc1ccc(OCCCC(=O)Nc2nonc2C)cc1C` the value was 12%.
Regarding `COc1ccc(C2(NC(=O)c3ccc(=O)n(C)n3)CCCC2)cc1`, the cytotoxicity at 70.5 h was -12.4%.
Turning to `CCCn1nc(C(=O)NC2(c3ccc(Cl)cc3)CCCC2)ccc1=O`, the cytotoxicity at 70.5 h is -7.76%.
`N#Cc1cccc(S(=O)(=O)NC(=O)C2CC(c3ccccc3)=NO2)c1` (stereo unspecified): the cytotoxicity at 70.5 h was -18.7%.
`Cc1nc(CNc2ccccc2CCC(F)(F)F)cs1`: the cytotoxicity at 70.5 h is -9.96%.
Consider `O=C(c1cc(C2CCCC2)no1)N1CC(O)C1`, for which the cytotoxicity at 70.5 h was -3.97%.
As for `O=C(CNC(=O)C1(c2ccc(F)cc2F)CCC1)Nc1ccccn1`, the cytotoxicity at 70.5 h is -3.32%.
`O=C(CNC(=O)C1(c2ccc(F)cc2F)CCC1)Nc1cccnc1`: the cytotoxicity at 70.5 h was found to be 31.2%.
